From patent US4731459A, “Novel anti-ulcer agents and quassinoids” (Shionogi & Co., Ltd., priority 1985, dated 1988)
Like-named read-outs stand apart in the source and are kept apart here.

Assays:
[1] = test system: ulcer caused by indomethacin (mucosal lesions in the glandular part of the stomach); test: Effect on ulcer caused by indomethacin; assay type: in vivo, male SD rats; conditions: Rattus norvegicus, ip, read-out: % Inhibition of lesion formation
Protocol: Indomethacin is subcutaneously administered to male SD rats (body weight: 200-220 g) fasted for 24 hours at a dose of 30 mg/kg. The stomachs are excised 7 hours after the administration. The total length of mucosal lesions occurred in the glandular part of the stomach is measured and % inhibition of lesion formation is calculated in comparison with those in the control group. Fifteen minutes before the administration of indomethacin, the test compounds are intraperitoneally administered in a form of aqueous solution.

Acute Toxicities = conditions: mouse, in vivo, ip; intraperitoneal, aqueous solution; male ddY mice
Description: Male ddY mice (Body weight 25-28 g each) are employed for the acute toxicity test. The test compounds are intraperitoneally administered in a form of aqueous solution.

[2] = 3.0 mg/Kg, intraperitoneal, 15 min before indomethacin 30 mg/kg s.c., male SD rats, 7 hours
[3] = 0.3 mg/Kg, intraperitoneal, 15 min before indomethacin 30 mg/kg s.c., male SD rats, 7 hours
[4] = 1.0 mg/Kg, intraperitoneal, 15 min before indomethacin 30 mg/kg s.c., male SD rats, 7 hours

Row | SMILES | inhibition in vivo at 3 mg/kg ([1]; 7 h) [%] | inhibition in vivo at 3 mg/kg [1, 2] [%] | LD50 (Acute Toxicities) [mg/kg] | further results
1 | CC1=CC(=O)[C@@H](O)[C@]2(C)[C@H]3[C@@]4(O)OC[C@@]35[C@@H](C[C@@H]12)OC(=O)[C@H](O)[C@@]5(O)[C@]1(CO1)[C@H]4O [IIe, 13α,18-Epoxy-13,18-dihydroeurycomanone] | 4.9 | – | – | –
2 | CC1CC(=O)[C@@H](O)[C@]2(C)[C@H]3[C@@]4(O)OC[C@@]35[C@@H](C[C@@H]12)OC(=O)C[C@H]5C(C)[C@H]4O (stereo partly shown) [IIc, 3,4,13,18-Tetrahydroailanthone] | – | 13.7 | > 30 | –
3 | CC1=CC(=O)[C@@H](O)[C@]2(C)[C@H]3[C@@]4(O)OC[C@@]35[C@@H](C[C@@H]12)OC(=O)[C@H](O)[C@@]5(O)[C@@H](C)[C@H]4O [IIg-A, 13β,18-Dihydro compound] | 47.1 | – | – | –
4 | C=C1[C@@H](O)[C@]2(O)OC[C@]34[C@H]2[C@@]2(C)[C@H](O)C(=O)C=C(C)[C@@H]2C[C@H]3OC(=O)[C@H](O)[C@@]14O [Ib, eurycomanone] | – | – | 18.9 | inhibition in vivo at 0.1 mg/kg ([1]; 0.1 mg/Kg, intraperitoneal, 15 min before indomethacin 30 mg/kg s.c., male SD rats, 7 hours): 12.5%; inhibition in vivo at 0.3 mg/kg [1, 3]: 58.5%; inhibition in vivo at 1 mg/kg [1, 4]: 94.7%
5 | CC1=CC(=O)[C@@H](O)[C@]2(C)[C@H]3[C@@]4(O)OC[C@@]35[C@@H](C[C@@H]12)OC(=O)[C@H](O)[C@@]5(O)[C@H](C)[C@H]4O [IIg-B, 13α,18-Dihydro compound] | -3.1 | – | – | –
6 | CC1=CC(=O)[C@@H](O)[C@]2(C)[C@H]3[C@@]4(O)OC[C@@]35[C@@H](C[C@@H]12)OC(=O)C[C@H]5[C@@]1(CO1)[C@H]4O [IIb, 13β,18-Epoxy-1,3,18-dihydroailanthone] | – | 74.4 | > 30 | –
7 | CC1=CC(=O)[C@@H](O)[C@]2(C)[C@H]3[C@@]4(O)OC[C@@]35[C@@H](C[C@@H]12)OC(=O)C[C@H]5[C@]1(CO1)[C@H]4O [IIa, 13α,18-Epoxy-13,18-dihydroailanthone] | – | 100 | > 100 | inhibition in vivo at 0.3 mg/kg [1, 3]: 36.8%; inhibition in vivo at 1 mg/kg [1, 4]: 77.1%
8 | CC1=CC(=O)[C@@H](O)[C@]2(C)[C@H]3[C@@]4(O)OC[C@@]35[C@@H](C[C@@H]12)OC(=O)C[C@H]5C(C)[C@H]4O (stereo partly shown) [IId, 13,18-dihydroailanthone] | 67.8 | – | > 30 | –
9 | C=C1[C@@H](O)[C@]2(O)OC[C@]34[C@H]2[C@@]2(C)[C@H](O)C(=O)CC(C)[C@@H]2C[C@H]3OC(=O)[C@H](O)[C@@]14O (single isomer, unassigned) [IIh, 3,4-Dihydroeurycomanone] | -10 | – | – | –
10 | CC1=CC(=O)[C@@H](O)[C@]2(C)[C@H]3[C@@]4(O)OC[C@@]35[C@@H](C[C@@H]12)OC(=O)[C@H](O)[C@@]5(O)[C@@]1(CO1)[C@H]4O [IIf, 13β,18-Epoxy-13,18-dihydroeurycomanone] | – | – | 5.5 | inhibition in vivo at 0.1 mg/kg ([1]; 7 h): 26.4%; inhibition in vivo at 0.3 mg/kg ([1]; 7 h): 71.3%; inhibition in vivo at 1 mg/kg ([1]; 7 h): 92.6%
